Results: patent publication US9388136B2, “Tert-butyl N-[2-{4-[6-amino-5-(2,4-difluorobenzoyl)-2-oxopyridin-1(2H)-yl]-3,5-difluorophenyl}ethyl]-L-alaninate or a salt, hydrate or solvate thereof” (Chroma Therapeutics Ltd., priority 2012, dated 2016)
Read-outs that look alike come from different tables or passages of the source.

Tests used:
human whole blood = assay: LPS-stimulation of human whole blood, TNF-α levels by ELISA; format: cell-based; details: for IC50: LPS 100 ng/ml, 6 hrs, read-out: D—ester TNF-alpha inhibition (human whole blood), IC50
Protocol: Whole blood was taken by venous puncture using heparinised vacutainers (Becton Dickinson) and diluted in an equal volume of RPMI1640 tissue culture media (Sigma). 100 μl was plated in V-bottomed 96 well tissue culture treated plates. 2 hrs after the addition of the inhibitor in 100 μl of RPMI1640 media, the blood was stimulated with LPS (E coli strain 005:B5, Sigma) at a final concentration of 100 ng/ml and incubated at 37° C. in 5% CO2 for 6 hrs. TNF-α levels were measured from cell-free supernatants by sandwich ELISA (R&D Systems #QTA00B).

THP-1 cells = assay: LPS-stimulation of THP-1 cells, TNF-α levels by ELISA; format: cell-based; details: LPS 1 μg/ml, 6 hrs, read-out: C—ester TNF-alpha inhibition (THP-1 cells), IC50
Protocol: THP-1 cells were plated in 100 μl at a density of 4×10^4 cells/well in V-bottomed 96 well tissue culture treated plates and incubated at 37° C. in 5% CO2 for 16 hrs. 2 hrs after the addition of the inhibitor in 100 μl of tissue culture media, the cells were stimulated with LPS (E coli strain 005:B5, Sigma) at a final concentration of 1 μg/ml and incubated at 37° C. in 5% CO2 for 6 hrs. TNF-α levels were measured from cell-free supernatants by sandwich ELISA (R&D Systems #QTA00B).

p38 MAP Kinase a = p38 MAP Kinase a (Homo sapiens (Human), UniProt Q16539); assay: p38 MAP kinase enzyme assay (radiometric filter-binding); format: biochemical
Chain of p38 MAP Kinase a (Q16539 whole entry): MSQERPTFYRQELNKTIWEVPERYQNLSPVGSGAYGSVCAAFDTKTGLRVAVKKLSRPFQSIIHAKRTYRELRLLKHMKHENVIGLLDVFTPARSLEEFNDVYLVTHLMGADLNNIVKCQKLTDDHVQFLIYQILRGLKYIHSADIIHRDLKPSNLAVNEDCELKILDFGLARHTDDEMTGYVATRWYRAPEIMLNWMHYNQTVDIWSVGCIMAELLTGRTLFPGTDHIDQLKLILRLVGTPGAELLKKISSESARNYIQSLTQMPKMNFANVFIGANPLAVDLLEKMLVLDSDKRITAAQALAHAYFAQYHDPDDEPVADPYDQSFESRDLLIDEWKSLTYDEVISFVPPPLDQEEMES
Protocol: The ability of compounds to inhibit p38 MAP a Kinase activity was measured in an assay performed by Upstate (Dundee UK). In a final reaction volume of 25 μL, p38 MAP Kinase a (5-10 mU) is incubated with 25 mM Tris pH 7.5, 0.002 mMEGTA, 0.33 mg/mL myelin basic protein, 10 mM MgAcetate and [g-33p-ATP] (specific activity approx. 500 cpm/pmol, concentration as required). The reaction is initiated by the addition of the MgATP mix. After incubation for 40 minutes at room temperature, the reaction is stopped by the addition of 5 μL of a 3% phosphoric acid solution. 10 μL of the reaction is then spotted onto a P30 filtermat and washed three times for 5 minutes in 75 mM phosphoric acid and once in methanol prior to drying and scintillation counting.
Duplicate data points are generated from a 1/3 log dilution series of a stock solution in DMSO. Nine dilutions steps are made from a top concentration of 10 μM, and a ‘no compound’ blank is included. The standard radiometric filter-binding assay is performed at an ATP concentration at, or close to, the Km. Data from scintillation counts are collected and subjected to free-fit analysis by Prism software.

[1] = corresponding acid (hydrolysis product of the named ester) tested, read-out: B—acid enzyme assay (p38 kinase A (invitrogen)), IC50
[2] = ester tested, read-out: A—ester enzyme assay (p38 kinase A (invitrogen)), IC50

SMILES	IC50 (human whole blood; Homo sapiens)	IC50 (THP-1 cells; Homo sapiens, THP-1)	IC50 (p38 MAP Kinase a; [1])	IC50 (p38 MAP Kinase a; [2])	D—ester TNF-alpha inhibition (human whole blood), % at single concentration (human whole blood; @ 10 μm)	IC50 (human whole blood)	IC50 (THP-1 cells)
CC(C)(C)OC(=O)[C@@H](NCCc1cc(F)c(-n2c(N)c(C(=O)c3ccc(F)cc3F)ccc2=O)c(F)c1)c1ccccc1 [tert-butyl (2S)-[(2-{4-[6-amino-5-(2,4-difluoro-benzoyl)-2-oxopyridin-1(2H)-yl]-3,5-difluorophenyl}ethyl)amino] (phenyl)acetate]	779 nM	2 nM	–	–	–	–	–
CC(C)C[C@@H](NCCc1cc(F)c(-n2c(N)c(C(=O)c3ccc(F)cc3F)ccc2=O)c(F)c1)C(=O)OC(C)(C)C [tert-butyl N-(2-{4-[6-amino-5-(2,4-difluoro-benzoyl)-2-oxopyridin-1(2H)-yl]-3,5-difluoro-phenyl}ethyl)-D-leucinate]	–	81 nM	2 nM	167 nM	0% @ 10 μm	–	–
C[C@@H](O)[C@H](NCCc1ccc(-n2c(N)c(C(=O)c3ccc(F)cc3F)ccc2=O)cc1)C(=O)OC1CCCC1 [Cyclopentyl N-[2-(4-{6-amino-5-[(2,4-difluoro-phenyl)carbonyl]-2-oxopyridin-1(2H)-yl}phenyl)ethyl]-L-threoninate]	1200 nM	1.8 nM	56 nM	68 nM	–	–	–
CC(C)C[C@H](NCCc1ccc(-n2c(N)c(C(=O)c3ccc(F)cc3F)ccc2=O)cc1)C(=O)OC(C)(C)C [tert-Butyl N-[2-(4-{6-amino-5-[(2,4-difluoro-phenyl)carbonyl]-2-oxopyridin-1(2H)-yl}phenyl)ethyl]-L-leucinate]	638 nM	2.4 nM	58 nM	330 nM	–	–	–
C[C@H](NCCc1ccc(-n2c(N)c(C(=O)c3ccc(F)cc3F)ccc2=O)cc1)C(=O)OC(C)(C)C [tert-butyl N-[2-(4-{6-amino-5-[(2,4-difluoro-phenyl)carbonyl]-2-oxopyridin-1(2H)-yl}phenyl)ethyl]-L-alaninate]	195 nM	2.8 nM	58 nM	58 nM	–	–	–
Nc1c(C(=O)c2ccc(F)cc2F)ccc(=O)n1-c1c(F)cc(CCN[C@H](C(=O)OC2CCCC2)c2ccccc2)cc1F [Cyclopentyl (2S)-[(2-{4-[6-amino-5-(2,4-difluorobenzoyl)-2-oxopyridin-1(2H)-yl]-3,5-difluorophenyl}ethyl)amino] (phenyl)acetate]	148 nM	0.5 nM	1 nM	65 nM	–	–	–
CC(C)(C)OC[C@H](NCCc1cc(F)c(-n2c(N)c(C(=O)c3ccc(F)cc3F)ccc2=O)c(F)c1)C(=O)OC(C)(C)C [tert-butyl N-(2-{4-[6-amino-5-(2,4-difluoro-benzoyl)-2-oxopyridin-1(2H)-yl]-3,5-difluorophenyl}ethyl)-O-tert-butyl-L-serinate]	–	83 nM	1 nM	72 nM	–	–	–
CC(C)C[C@H](NCCCCCOc1cc(F)c(-n2c(N)c(C(=O)c3ccc(F)cc3F)ccc2=O)c(F)c1)C(=O)OC1CCCC1 [Cyclopentyl N-(5-{4-[6-amino-5-(2,4-difluorobenzoyl)-2-oxopyridin-1(2H)-yl]-3,5 - difluorophenoxy}pentyl)-L-leucinate]	179 nM	4.2 nM	2 nM	81 nM	–	–	–
CC(C)C[C@H](NCCCOc1cc(F)c(-n2c(N)c(C(=O)c3ccc(F)cc3F)ccc2=O)c(F)c1)C(=O)OC(C)(C)C [tert-Butyl (S)-2-(3-{4-[6-Amino-5-(2,4-difluorobenzoyl)-2-oxo-2H-pyridin-1-yl]-3,5-difluoro-phenoxy}propyl-amino)-4-methyl pentanoate]	4270 nM	76.1 nM	–	–	–	–	–
NCC[C@H](NCCCOc1cc(F)c(-n2c(N)c(C(=O)c3ccc(F)cc3F)ccc2=O)c(F)c1)C(=O)OC1CCCC1 [Cyclopentyl (2S)-4-amino-2-[(3-{4-[6-amino-5-(2,4-difluoro-benzoyl)-2-oxopyridin-1(2H)-yl]-3,5-difluoro-phenoxy}propyl)amino]butanoate]	479 nM	22 nM	5 nM	1 nM	–	–	–
CC(C)(C)OC[C@H](NCCc1cc(F)c(-n2c(N)c(C(=O)c3ccc(F)cc3F)ccc2=O)c(F)c1)C(=O)OC1CCCC1 [Cyclopentyl N-(2-{4-[6-amino-5-(2,4-difluoro-benzoyl)-2-oxopyridin-1(2H)-yl]-3,5-difluorophenyl}ethyl)-O-tert-butyl-L-serinate]	1300 nM	5.7 nM	1 nM	57 nM	–	–	–
Nc1c(C(=O)c2ccc(F)cc2)ccc(=O)n1-c1c(F)cc(OCCCN[C@H](C(=O)OC2CCCC2)c2ccccc2)cc1F [Cyclopentyl (S)-(3-{4-[6-Amino-5-(4-fluorobenzoyl)-2-oxo-2H-pyridin-1-yl]-3,5-difluoro-phenoxy}propylamino) phenylacetate]	–	38 nM	–	–	–	–	–
Nc1c(C(=O)c2ccc(F)cc2F)ccc(=O)n1-c1c(F)cc(OCCCN[C@@H](C(=O)OC2CCCC2)c2ccccc2)cc1F [Cyclopentyl (2R)-[(3-{4-[6-amino-5-(2,4-difluorobenzoyl)-2-oxopyridin-1(2H)-yl]-3,5-difluorophenoxy}propyl)amino] (phenyl)acetate]	–	6 nM	–	–	–	–	–
CCOC(=O)[C@H](CC(C)C)NCCCOc1cc(F)c(-n2c(N)c(C(=O)c3ccc(F)cc3)ccc2=O)c(F)c1 [Ethyl N-(3-{4-[6-amino-5-(4-fluoro-benzoyl)-2-oxopyridin-1(2H)-yl]-3,5-difluorophenoxy}propyl)-L-leucinate]	–	8.6 nM	–	28 nM	–	–	–
Nc1c(C(=O)c2ccc(F)cc2F)ccc(=O)n1-c1c(F)cc(CCN[C@@H](C(=O)OC2CCCC2)c2ccccc2)cc1F [Cyclopentyl (2R)-[(2-{4-[6-amino-5-(2,4-difluoro-benzoyl)-2-oxopyridin-1(2H)-yl]-3,5-difluorophenyl}ethyl)amino] (phenyl)acetate]	–	–	–	47 nM	–	4110 nM	21 nM
Nc1c(C(=O)c2ccc(F)cc2F)ccc(=O)n1-c1c(F)cc(OCCCN[C@H](C(=O)OC2CCCC2)c2ccccc2)cc1F [Cyclopentyl (S)-(3-{4-[6-Amino-5-(2,4-difluorobenzoyl)-2-oxo-2H-pyridin-1-yl]-3,5-difluoro-phenoxy}propylamino) phenyl acetate]	508 nM	5.3 nM	–	–	–	–	–
CC(C)C[C@H](NCCc1cc(F)c(-n2c(N)c(C(=O)c3ccc(F)cc3)ccc2=O)c(F)c1)C(=O)OC1CCCC1 [Cyclopentyl N-(2-{4-[6-amino-5-(4-fluoro-benzoyl)-2-oxopyridin-1(2H)-yl]-3,5-difluorophenyl}ethyl)-L-leucinate]	190 nM	0.9 nM	1 nM	12 nM	–	–	–
CC(C)C[C@H](NCCc1ccc(-n2c(N)c(C(=O)c3ccc(F)cc3)ccc2=O)cc1)C(=O)OC(C)(C)C [tert-Butyl N-[2-(4-{6-amino-5-[(4-fluoro-phenyl)carbonyl]-2-oxopyridin-1(2H)-yl}phenyl)ethyl]-L-leucinate]	947 nM	19 nM	118 nM	724 nM	–	–	–
CC(C)[C@H](NCCc1cc(F)c(-n2c(N)c(C(=O)c3ccc(F)cc3F)ccc2=O)c(F)c1)C(=O)OC1CCCC1 [Cyclopentyl N-[2-(4-{6-amino-5-[(2,4-difluoro-phenyl)carbonyl]-2-oxopyridin-1(2H)-yl}-3,5 difluorophenyl)ethyl]-L-valinate]	5180 nM	8.4 nM	–	22 nM	–	–	–
CC(C)C[C@H](NCCCOc1cc(F)c(-n2c(N)c(C(=O)c3ccc(F)cc3F)ccc2=O)c(F)c1)C(=O)OC1CCCC1 [Cyclopentyl (S)-2-(3-{4-[6-Amino-5-(2,4-difluorobenzoyl)-2-oxo-2H-pyridin-1-yl]-3,5-difluoro-phenoxy}propyl-amino)-4-methyl pentanoate]	594 nM	10.7 nM	–	–	–	–	–
CC(C)C[C@H](NCCCOc1cc(F)c(-n2c(N)c(C(=O)c3ccc(F)cc3F)ccc2=O)c(F)c1)C(=O)OCCN1CCOCC1 [2-Morpholin-4-ylethyl N-(3-{4-[6-amino-5-(2,4-difluorobenzoyl)-2-oxopyridin-1(2H)-yl]-3,5-difluoro-phenoxy}propyl)-L-leucinate]	935 nM	0.4 nM	–	–	–	–	–
